Experimental findings from patent US20150246938A1, “NOVEL OLEFIN DERIVATIVE” (SHIONOGI & CO., LTD., priority 2011, published 2015) are described below.

The first test has as its target T1, recombinant human ACC1 (Homo sapiens, UniProt Q13085).
T1 construct: a cDNA encoding human ACC1 (1-2346) was cloned from human liver cDNA library (BioChain); myc-tag (C); His-tag (C); made in house; host or cells: Sf-9 insect cells (baculovirus, FlashBACGOLD)
As to the kind of experiment: Measurement of inhibitory activity on human ACC1 (MALDI-TOF MS, acetyl CoA to malonyl CoA conversion).
Details: not given
Type of test: biochemical. The text has this:
Recombinant baculovirus was generated using FlashBACGOLD system (Oxford Expression Technologies) according to the manufacturer's protocol. To express human ACC1, Sf-9 cells were infected with recombinant baculovirus. After infected cells were disrupted, the filtrated lysate was subjected to Ni-affinity chromatography and anion-exchange chromatography. The fractions containing human ACC1 protein were pooled as recombinant human ACC1 solution.
Recombinant human ACC1 and recombinant human ACC2, which were prepared by the method mentioned above, were preincubated with assay buffer solution (50 mM HEPES-KOH (pH 7.4), 10 mM magnesium chloride, 6-10 mM potassium citrate, 4 mM reduced form of glutathione, 1.5 mg/ml bovine serum albumin) for one hour. Then, 0.2 μL of each this invention compound solution (in DMSO) were dispensed to 384-well microplate, 5 μL of the preincubated enzyme solution and 5 μL of substrate solution (50 mM HEPES-KOH (pH 7.4), 1 mM ATP, 0.8 mM acetyl CoA and 25-50 mM potassium bicarbonate) were added to microplate. After centrifugation and shaking, the reaction mixtures were incubated in a humidified box at room temperature for 1 to 3 hours. After the incubation, the enzyme reactions were stopped by the addition of EDTA. Then, after the samples were cocrystallized with CHCA (α-cyano-4-hydroxy cinnamic acid) matrices on MALDI target plate, by using the matrix assist laser […] time-of-flight mass spectrometer (MALDI-TOF MS), samples were measured in reflector negative mode. Deprotonated ions of acetyl CoA (AcCoA) of substrate and malonyl CoA (MalCoA) of the reaction product were detected, then, the conversion rates of acetyl CoA to malonyl CoA was calculated by the intensity of [MalCoA-H]-/(Intensity of [MalCoA-H]-+Intensity of [AcCoA-H]-) using each signal strength. […] In addition, potassium citrate concentrations in assay buffer solution, potassium hydrogen carbonate concentrations in substrate solution and incubation time were adjusted by each lot of enzyme.
Take `CCCc1ccc(Oc2ccc(/C=C/[C@H](C)NC(=O)CN)cn2)c(Cl)c1` [Compound I-390]: the IC50 was above 100000 nM.

Turning to `CCOc1ccc(Cc2ccc(/C=C/[C@H](C)NC(C)=O)cn2)c(Cl)c1` [Compound I-60], the IC50 is above 100000 nM.

For `CCCc1ccc(Oc2ccc(/C=C/[C@H](C)NC(C)=O)cn2)c(OC)c1` [Compound I-438], the IC50 is above 100000 nM.

Regarding `CCNC(=O)c1cc(C(=O)N[C@@H](C)/C=C/c2cnn(Cc3ccc(OCC4CC4)c(Cl)c3Cl)c2)ccn1` [Compound I-320], the IC50 is above 100000 nM.

The test is the same for the next values; noted with them: recombinant human ACC1, MALDI-TOF MS readout; read-out: 50% inhibitory concentration (1050) on human ACCT.
Consider `COC(=O)CCCCC(=O)N[C@@H](C)/C=C/c1cnc(Oc2ccc(OCC3CC3)cc2Cl)s1` [Compound I-130], for which the IC50 is above 100000 nM.

Turning to `CNC(=O)COc1cc(C(=O)N[C@@H](C)/C=C/c2cnc(Oc3ccc(OCC4CC4)cc3Cl)s2)ccn1` [Compound I-250], the IC50 is above 100000 nM.

For `CC(=O)N[C@@H](C)/C=C/c1cnc(Oc2ccc(OCC3CC3)cc2Cl)s1` [Compound I-1], the IC50 is above 100000 nM.

Take `CC(=O)N[C@@H](C)/C=C/c1ccc(Oc2ccc(-c3ncns3)cc2Cl)nc1` [Compound I-420]: the IC50 was above 100000 nM.

On to `CC(C)NC(=O)c1cc(C(=O)N[C@@H](C)/C=C/c2cnc(Oc3ccc(OCC4CC4)cc3Cl)s2)ccn1` [Compound I-210], for which the IC50 is above 100000 nM.

As for `CC(=O)N[C@@H](C)/C=C/c1ccc(Oc2ccc(C(C)(C)C)cc2Cl)nc1` [Compound I-300], the IC50 was above 100000 nM.

`C[C@@H](/C=C/c1cnc(Oc2ccc(OCC3CC3)cc2Cl)s1)NC(=O)c1ccnc(N(C)C)c1` [Compound I-160]: the IC50 is above 100000 nM.

Consider `COC(=O)N[C@@H](C)/C=C/c1cnc(Oc2ccc(OCC3CC3)cc2Cl)s1` [Compound I-180], for which the IC50 is above 100000 nM.

On to `CCCc1ccc(Oc2ccc(/C=C/[C@H](C)NC(C)=O)cn2)c(Cl)c1` [Compound I-30], for which the IC50 is above 100000 nM.

Regarding `C[C@@H](/C=C/c1cnc(Oc2ccc(OCC3CC3)cc2Cl)s1)NC(=O)CC(=O)OC(C)(C)C` [Compound I-100], the IC50 is above 100000 nM.

The target of another test is T2, recombinant human ACC2 (Homo sapiens, UniProt O00763).
T2 construct: a cDNA encoding human ACC2 (27-2458) was cloned from human kidney cDNA library (Clontech); His-tag (N); made in house; host or cells: Sf-9 insect cells (Bac-to-Bac baculovirus)
T2 sequence (O00763 27-2458): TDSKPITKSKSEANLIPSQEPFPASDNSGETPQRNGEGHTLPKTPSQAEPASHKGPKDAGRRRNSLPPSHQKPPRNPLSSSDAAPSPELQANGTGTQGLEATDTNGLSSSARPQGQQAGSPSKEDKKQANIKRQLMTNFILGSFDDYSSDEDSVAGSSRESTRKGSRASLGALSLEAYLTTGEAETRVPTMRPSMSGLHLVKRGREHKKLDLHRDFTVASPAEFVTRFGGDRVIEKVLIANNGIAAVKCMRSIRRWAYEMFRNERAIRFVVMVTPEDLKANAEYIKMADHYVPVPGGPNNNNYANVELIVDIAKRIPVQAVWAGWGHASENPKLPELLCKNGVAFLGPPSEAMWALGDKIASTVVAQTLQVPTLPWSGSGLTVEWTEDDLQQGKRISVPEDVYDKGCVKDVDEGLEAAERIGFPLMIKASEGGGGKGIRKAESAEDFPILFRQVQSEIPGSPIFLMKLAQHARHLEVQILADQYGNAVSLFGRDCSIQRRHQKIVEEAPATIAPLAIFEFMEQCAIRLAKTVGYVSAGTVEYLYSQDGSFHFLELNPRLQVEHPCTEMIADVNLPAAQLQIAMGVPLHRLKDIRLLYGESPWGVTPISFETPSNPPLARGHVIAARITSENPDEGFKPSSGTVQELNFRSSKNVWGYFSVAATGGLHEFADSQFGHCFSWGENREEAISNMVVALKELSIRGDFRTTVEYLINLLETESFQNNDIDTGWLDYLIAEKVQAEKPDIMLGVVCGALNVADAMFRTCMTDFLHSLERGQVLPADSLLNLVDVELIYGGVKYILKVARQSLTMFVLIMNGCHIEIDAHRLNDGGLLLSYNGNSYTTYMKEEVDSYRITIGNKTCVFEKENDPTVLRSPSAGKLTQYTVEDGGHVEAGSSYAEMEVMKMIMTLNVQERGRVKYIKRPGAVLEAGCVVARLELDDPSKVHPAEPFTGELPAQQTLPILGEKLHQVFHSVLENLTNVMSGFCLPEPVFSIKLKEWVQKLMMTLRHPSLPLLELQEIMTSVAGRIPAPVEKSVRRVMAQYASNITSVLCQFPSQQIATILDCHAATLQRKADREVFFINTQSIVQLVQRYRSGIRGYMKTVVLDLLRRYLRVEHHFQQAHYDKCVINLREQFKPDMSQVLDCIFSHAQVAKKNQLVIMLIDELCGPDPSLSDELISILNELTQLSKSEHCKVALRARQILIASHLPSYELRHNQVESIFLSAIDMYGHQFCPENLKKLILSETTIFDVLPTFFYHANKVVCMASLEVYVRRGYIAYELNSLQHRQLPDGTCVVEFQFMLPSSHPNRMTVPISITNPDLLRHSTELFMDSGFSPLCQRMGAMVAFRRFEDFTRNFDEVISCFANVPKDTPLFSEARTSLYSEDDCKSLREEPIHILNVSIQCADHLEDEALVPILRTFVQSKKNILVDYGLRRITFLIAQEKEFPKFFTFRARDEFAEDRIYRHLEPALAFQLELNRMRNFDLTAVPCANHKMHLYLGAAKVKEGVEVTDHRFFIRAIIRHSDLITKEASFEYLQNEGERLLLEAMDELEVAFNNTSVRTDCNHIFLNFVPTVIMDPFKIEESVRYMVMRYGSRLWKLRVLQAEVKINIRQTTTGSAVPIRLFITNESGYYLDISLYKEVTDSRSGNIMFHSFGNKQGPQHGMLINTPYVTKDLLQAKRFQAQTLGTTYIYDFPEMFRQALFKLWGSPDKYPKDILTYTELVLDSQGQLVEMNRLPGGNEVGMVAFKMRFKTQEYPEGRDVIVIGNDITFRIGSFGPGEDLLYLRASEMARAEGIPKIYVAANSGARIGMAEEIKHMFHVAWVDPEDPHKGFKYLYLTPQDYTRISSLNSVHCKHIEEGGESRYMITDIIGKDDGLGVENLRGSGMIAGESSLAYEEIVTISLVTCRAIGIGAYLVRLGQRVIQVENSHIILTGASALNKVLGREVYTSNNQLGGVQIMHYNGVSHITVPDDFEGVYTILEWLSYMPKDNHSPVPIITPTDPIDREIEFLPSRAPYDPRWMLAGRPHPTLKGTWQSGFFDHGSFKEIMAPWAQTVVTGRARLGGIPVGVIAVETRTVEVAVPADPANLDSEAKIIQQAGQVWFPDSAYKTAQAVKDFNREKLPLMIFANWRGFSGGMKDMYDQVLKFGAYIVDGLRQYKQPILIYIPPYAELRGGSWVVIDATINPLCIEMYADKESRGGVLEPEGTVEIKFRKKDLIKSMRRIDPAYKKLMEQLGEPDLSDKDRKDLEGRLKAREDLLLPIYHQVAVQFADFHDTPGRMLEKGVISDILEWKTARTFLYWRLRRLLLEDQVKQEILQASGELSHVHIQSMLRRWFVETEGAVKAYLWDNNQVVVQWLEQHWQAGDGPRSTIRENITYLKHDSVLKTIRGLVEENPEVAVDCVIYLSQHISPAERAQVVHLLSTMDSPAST
As to the kind of experiment: Measurement of inhibitory activity on human ACC2 (MALDI-TOF MS, acetyl CoA to malonyl CoA conversion). It counts as biochemical.
Details: not given
`CCCc1ccc(Oc2ccc(/C=C/[C@H](C)NC(=O)CN)cn2)c(Cl)c1` [Compound I-390]: the IC50 was determined as 540 nM.

Consider `CC(=O)N[C@@H](C)/C=C/c1ccc(Oc2ccc(-c3ncns3)cc2Cl)nc1` [Compound I-420], for which the IC50 was 120 nM.

Turning to `CC(=O)N[C@@H](C)/C=C/c1ccc(Oc2ccc(C(C)(C)C)cc2Cl)nc1` [Compound I-300], the IC50 is 18 nM.

Consider `COc1c(OCC2CC2)ccc(Oc2cnc(/C=C/[C@H](C)NC(C)=O)cn2)c1Cl` [Compound I-394], for which the IC50 was found to be 12 nM.

Take `CCCc1ccc(Oc2ccc(/C=C/[C@H](C)NC(=O)c3ccnc(C(=O)NCCO)c3)cn2)c(Cl)c1` [Compound I-391]: the IC50 was found to be 47 nM.

In the case of `CC(=O)N[C@@H](C)/C=C/c1ccc(Oc2ccc3c(c2)CCCC3)nc1` [Compound I-398], the IC50 was 43 nM.

Turning to `CCNC(=O)N[C@@H](C)/C=C/c1cnc(Oc2ccc(OCC3CC3)cc2Cl)s1` [Compound I-195], the IC50 was found to be 61 nM.

As for `CC(=O)N[C@@H](C)/C=C/c1ccc(Oc2ccc(-c3nc4ccccc4o3)cc2Cl)nc1` [Compound I-414], the IC50 was 36 nM.

Still in this test, the particulars now being: inhibition activity on human ACC2, Table 79; read-out: IC50.
As for `CC(=O)N[C@@H](C)/C=C/c1cnc(Oc2ccc(OCC3CC3)cc2Cl)nc1` [Compound I-52], the IC50 was determined as 54 nM.

Regarding `C[C@@H](/C=C/c1cnc(Oc2ccc(OCC3CC3)cc2Cl)s1)NC(=O)CCCn1cncn1` [Compound I-87], the IC50 turned out to be 350 nM.

With `CSCCC(=O)N[C@@H](C)/C=C/c1cnc(Oc2ccc(OCC3CC3)cc2Cl)s1` [Compound I-72], the IC50 was 230 nM.

Regarding `CC(=O)N[C@@H](C)/C=C/c1cnc(N2CCc3cc(OCC4CC4)ccc32)s1` [Compound I-59], the IC50 came to 950 nM.

As for `C[C@@H](/C=C/c1cnc(Oc2ccc(OCC3CC3)cc2Cl)s1)NC(=O)CCCN1CCCC1` [Compound I-88], the IC50 is 890 nM.

Still in this test, the particulars now being: inhibition activity on human ACC2, Table 80; read-out: IC50.
`C[C@@H](/C=C/c1cnc(Oc2ccc(OCC3CC3)cc2Cl)s1)NC(=O)c1cccc(C2=NCCO2)c1` [Compound I-143]: the IC50 is 800 nM.

On to `C[C@@H](/C=C/c1cnc(Oc2ccc(OCC3CC3)cc2Cl)s1)NC(=O)NCC(F)(F)F` [Compound I-193], for which the IC50 was 140 nM.

Turning to `C[C@@H](/C=C/c1cnc(Oc2ccc(OCC3CC3)cc2Cl)s1)NC(=O)c1cccc(-c2ncco2)c1` [Compound I-144], the IC50 came to 690 nM.

`CCCOc1ccc(Oc2ncc(/C=C/[C@H](C)NC(=O)c3ccncc3F)s2)c(Cl)c1` [Compound I-164]: the IC50 was found to be 850 nM.

In the case of `C[C@@H](/C=C/c1cnc(Oc2ccc(OCC3CC3)cc2Cl)s1)NC(=O)c1ccnc(C(=O)NCCN2CCOCC2)c1` [Compound I-208], the IC50 stood at 4.9 nM.

The same test, now with this note: inhibition activity on human ACC2, Table 82; read-out: IC50.
As to `CCNC(=O)c1cc(C(=O)N[C@@H](C)/C=C/c2cnn(Cc3ccc(OCC4CC4)c(Cl)c3Cl)c2)ccn1` [Compound I-320], the IC50 was 230 nM.

As to `CCCc1cccc(Oc2ccc(/C=C/[C@H](C)NC(C)=O)cn2)n1` [Compound I-330], the IC50 worked out at 3900 nM.

As to `CC(=O)N[C@@H](C)/C=C/c1cnc(Oc2ccc(OCC3CC3)cc2Cl)n1C` [Compound I-341], the IC50 is 450 nM.

For the compound `CCOc1cc(F)c(Oc2ccc(/C=C/[C@H](C)NC(C)=O)cn2)c(Cl)c1` [Compound I-361], the IC50 is 36 nM.

On to `CC(=O)N[C@@H](C)/C=C/c1ccc(Oc2ccc(C(C)O)cc2Cl)nc1` (some centres unmarked) [Compound I-329], for which the IC50 was found to be 1100 nM.

With `CC(=O)N[C@@H](C)/C=C/c1ccc(Oc2ccc(S(=O)(=O)CC(C)C)cc2Cl)nc1` [Compound I-367], the IC50 came to 140 nM.

Take `CC(=O)N[C@@H](C)/C=C/c1ccc(Oc2ccc(C3(C)CC3)cc2Cl)nc1` [Compound I-369]: the IC50 was 24 nM.

With `CCCc1ncc(Oc2ccc(/C=C/[C@H](C)NC(C)=O)cn2)cc1C` [Compound I-370], the IC50 was determined as 280 nM.

For the compound `CC(=O)N[C@@H](C)/C=C/c1ccc(Oc2ccc(C(C)(F)F)cc2Cl)nc1` [Compound I-328], the IC50 is 35 nM.

Staying with this test, now noted: inhibition activity on human ACC2, Table 84; read-out: IC50.
Consider `CCCc1ccc(Oc2ccc(/C=C/[C@H](C)NC(C)=O)cn2)c(OC)c1` [Compound I-438], for which the IC50 was 780 nM.

Take `CC(=O)N[C@@H](C)/C=C/c1ccc(Oc2ccc(Oc3ccccn3)cc2Cl)nc1` [Compound I-463]: the IC50 was found to be 68 nM.

Regarding `CC(=O)N[C@@H](C)/C=C/c1ccc(Oc2ccc3c(C)noc3c2)nc1` [Compound I-456], the IC50 was 450 nM.

For the compound `CC(=O)N[C@@H](C)/C=C/c1ccc(Oc2ccc3c(c2)CC(C)(C)O3)nc1` [Compound I-498], the IC50 worked out at 27 nM.

On to `CC(=O)N[C@@H](C)/C=C/c1cnc(Oc2cc3c(cc2Cl)OC(C)(C)C3)cn1` [Compound I-508], for which the IC50 amounted to 230 nM.

`CCOc1ccc(Oc2ncc(/C=C/[C@H](C)NC(C)=O)cc2C)c(Cl)c1` [Compound I-442]: the IC50 was 65 nM.

For `CCCc1cc(Cl)c(Oc2ccc(/C=C/[C@H](C)NC(C)=O)cn2)cc1Cl` [Compound I-458], the IC50 is 26 nM.

Turning to `CC(=O)N[C@@H](C)/C=C/c1ccc(Oc2ccc3c(c2)OCCO3)nc1` [Compound I-472], the IC50 was 37 nM.

The test is the same for the next values; noted with them: inhibition activity on human ACC2, untitled table (Table 81); read-out: IC50.
With `CC(=O)N[C@@H](C)/C=C/c1ccc(Oc2ccc(-c3ncco3)cc2Cl)nc1` [Compound I-268], the IC50 was found to be 110 nM.

On to `CC(=O)N[C@@H](C)/C=C/c1ccc(Oc2ccc(N3CCCC3=O)cc2Cl)nc1` [Compound I-272], for which the IC50 came to 450 nM.

With `CC(=O)N[C@@H](C)/C=C/c1cnc(Oc2ccc(OCC3CC3)c(Cl)c2)cn1` [Compound I-291], the IC50 was 18 nM.

`CC(=O)N[C@@H](C)/C=C/c1ccc(Oc2ccnc(OCC3CC3)c2)nc1` [Compound I-255]: the IC50 turned out to be 87 nM.

Turning to `CCNC(=O)c1cc(C(=O)N[C@@H](C)/C=C/c2cnn(Cc3ccc(Cl)c(Cl)c3)c2)ccn1` [Compound I-310], the IC50 is 1300 nM.

As for `CCOc1ccc(Oc2cnc(/C=C/[C@H](C)NC(C)=O)cn2)c(Cl)c1` [Compound I-286], the IC50 was determined as 48 nM.

Regarding `CCNC(=O)c1cc(C(=O)N[C@@H](C)/C=C/c2cnn(Cc3ccc(F)c(Cl)c3)c2)ccn1` [Compound I-314], the IC50 is 960 nM.
